Biological target: T1, Polθ polymerase domain (amino acids 1792-2590) (Homo sapiens, UniProt O75417)
T1 construct: 10×Histidine-SUMO (N, cleaved yes); made in house; host or cells: E. coli
T1 sequence (O75417 1792-2590): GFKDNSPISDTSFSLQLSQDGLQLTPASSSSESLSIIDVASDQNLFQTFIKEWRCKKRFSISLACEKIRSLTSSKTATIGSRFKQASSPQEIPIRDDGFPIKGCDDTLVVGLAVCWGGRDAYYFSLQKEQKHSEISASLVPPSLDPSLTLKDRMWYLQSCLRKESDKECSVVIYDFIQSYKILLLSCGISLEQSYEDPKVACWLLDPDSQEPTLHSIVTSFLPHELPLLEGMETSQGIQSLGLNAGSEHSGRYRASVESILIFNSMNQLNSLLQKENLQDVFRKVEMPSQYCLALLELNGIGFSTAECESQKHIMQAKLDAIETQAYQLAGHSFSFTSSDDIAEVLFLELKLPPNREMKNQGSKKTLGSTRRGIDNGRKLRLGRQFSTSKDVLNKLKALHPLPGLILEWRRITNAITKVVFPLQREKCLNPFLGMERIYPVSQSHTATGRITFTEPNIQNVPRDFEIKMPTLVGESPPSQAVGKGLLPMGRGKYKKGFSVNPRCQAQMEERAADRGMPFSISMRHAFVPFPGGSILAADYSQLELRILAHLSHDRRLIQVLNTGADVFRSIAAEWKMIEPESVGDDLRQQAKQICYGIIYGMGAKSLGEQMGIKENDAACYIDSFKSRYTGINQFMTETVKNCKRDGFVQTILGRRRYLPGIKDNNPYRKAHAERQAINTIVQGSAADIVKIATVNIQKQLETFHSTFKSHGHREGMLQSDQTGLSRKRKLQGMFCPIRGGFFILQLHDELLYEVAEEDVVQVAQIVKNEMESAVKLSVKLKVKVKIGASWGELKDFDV
Test: Picogreen assay of Polθ polymerase activity
Assay type: biochemical
Conditions: 12-point concentration response, 90 minutes incubation at room temperature, 8 nM Polθ in 2×polymerase mixture, read-out: PolQ IC50
Text: The DNA sequence of the polQ gene (Genebank ID #NM 199420.4) was chemically synthesized. The DNA sequence encoding the polymerase domain (amino acids 1792-2590) was subcloned into an E. coli expression plasmid, resulting in the fusion of 10×Histidine-SUMO tag at the N terminus of the polymerase domain.
The protein was expressed in E. coli. and purified using a 2-step IMAC (immobilized metal chelate affinity chromatography) procedure. Briefly stated, the overexpressed E. coli lysate was subjected to Ni-NTA purification, and an N-terminal tag was digested by a SUMO protease. Then, the excised fragment of 10×Histidine-SUMO tag was removed using Ni-NTA beads. The resulting protein was used for the Picogreen assay, as described below.
The methods of DNA complex preparation were slightly modified from the protocol previously reported (Zatreanu et al., 2021, Nature Communications, 12:3636). Briefly stated, polθ substrate was prepared by mixing Oligo1 (5′-GCG GCT GTC ATA AG-3′) and Oligo2 (5′-GCTACATTGACAATGGCATCAAATCTCAGATTGCGTCTTATGACAGCCGCG-3′) in an annealing buffer (20 mM Tris-Cl, pH 7.5, 50 mM NaCl) to the final concentration of 22 uM and 20 uM, respectively. The Polθ product was prepared by mixing Oligo3 (5′-CGCGGCTGTCATAAGACGCAATCTGAGATTTGATGCCATTGTCAATGTAGC-3′) and Oligo2 (5′-GCTACATTGACAATGGCATCAAATCTCAGATTGCGTCTTATGACAGCCGCG-3′) to the final concentration of 20 uM. The polθ product was used for the top signal control in the Picogreen assay. Both substrate and product were heated to 95° C. […] and cooled slowly to room temperature.
To evaluate the ability of test compounds to inhibit the activity of polθ in vitro, a Picogreen assay was performed to measure polθ IC50 (nM).
The reactions were performed at room temperature in an assay buffer (25 mM Tris-HCl, pH 7.5, 12.5 mM NaCl, 0.5 mM MgCl2, 5% (v/v) glycerol, 0.01% (v/v) Triton X-100, 0.01% (w/v) Bovine serum albumin, 1 mM DTT). Thirty microliters of 2×polymerase mixture (8 nM Polθ enzyme in an assay buffer) were distributed to 96 well plates, test compounds were prepared by dilution in 100% DMSO to obtain the correct dose range for a 12-point concentration response and 1 μl was dispensed into each well, and then 30 microliters of 2×substrate mix (100 nM DNA and 40 uM dNTPs in an assay buffer) was added. After 90 minutes of incubation, the reaction was stopped and DNA was stained by adding 40 microliters of Picogreen solution (1:80 dilution of Picogreen, Invitrogen, Cat #P7581, 25 mM Tris-HCl, pH 7.5, 10 mM EDTA, pH 7.5).
The fluorescence intensity was measured at excitation/emission=485 nm/520 nm using an Ensight plate reader (Perkin Elmer). The data was analyzed by GraphPad Prism software (Version 8.4.3) to calculate IC50.

Structure (SMILES)	IC50 [nM]
C=CC(=O)Nc1ccnc(C#CCN(C(=O)[C@@H]2CCS(=O)(=O)N2c2cc(C(F)(F)F)cc(C)n2)c2ccc(F)c(C)c2)c1 [compound 138, (S)-N-(3-(4-acrylamidopyridin-2-yl)prop-2-yn-1-yl)-N-(4-fluoro-3-methylphenyl)-2-(6-methyl-4-(trifluoromethyl)pyridin-2-yl)isothiazolidine-3-carboxamide 1,1-dioxide]	1 to 50
C=CC(=O)Nc1cccc(C#CCN(C(=O)[C@@H]2CCS(=O)(=O)N2c2cc(C(F)(F)F)cc(C)n2)c2ccc(F)c(C)c2)n1 [compound 137, (S)-N-(3-(6-acrylamidopyridin-2-yl)prop-2-yn-1-yl)-N-(4-fluoro-3-methylphenyl)-2-(6-methyl-4-(trifluoromethyl)pyridin-2-yl)isothiazolidine-3-carboxamide 1,1-dioxide]	1 to 50
Cc1cc(C(F)(F)F)cc(N2[C@H](C(=O)N(CC#Cc3cccc(=O)[nH]3)c3ccc(F)c(C)c3)CCS2(=O)=O)n1 [compound 87]	51 to 100
Cc1cc(C(F)(F)F)cc(N2[C@H](C(=O)N(CC#Cc3cnc(-c4c[nH]nn4)cn3)c3ccc(F)c(C)c3)CCS2(=O)=O)n1 [compound 56]	1 to 50
Cc1cc(C(F)(F)F)cc(N2[C@H](C(=O)N(CC#Cc3cnc(-n4ccnn4)cn3)c3ccc(F)c(C)c3)CCS2(=O)=O)n1 [compound 57]	1 to 50
Cc1cc(C(F)(F)F)cc(N2[C@H](C(=O)N(CC#Cc3cccc(OC(F)F)n3)c3ccc(F)c(C)c3)CCS2(=O)=O)n1 [compound 89]	51 to 100
Cc1cc(C(F)(F)F)cc(N2[C@H](C(=O)N(CC#Cc3cc(F)c(C(N)=O)cn3)c3ccc(F)c(C)c3)CCS2(=O)=O)n1 [compound 122]	1 to 50
C=CC(=O)Nc1cncc(C#CCN(C(=O)[C@@H]2CCS(=O)(=O)N2c2cc(C(F)(F)F)cc(C)n2)c2ccc(F)c(C)c2)n1 [compound 128]	1 to 50
Cc1cc(C(F)(F)F)cc(N2[C@H](C(=O)N(CC#Cc3cnc(N4CCOCC4)c(N)n3)c3ccc(F)c(C)c3)CCS2(=O)=O)n1 [compound 44]	1 to 50
C=CC(=O)Nc1cncc(C#CCN(C(=O)[C@@H]2CCS(=O)(=O)N2c2cc(C(F)(F)F)cc(C)n2)c2ccc(F)c(C)c2)c1 [compound 127]	1 to 50
Cc1cc(C(F)(F)F)cc(N2[C@H](C(=O)N(CC#Cc3cccc(=O)n3C)c3ccc(F)c(C)c3)CCS2(=O)=O)n1 [compound 92]	1 to 50
Cc1cc(C(F)(F)F)cc(N2[C@H](C(=O)N(CC#Cc3ccc(OC(F)F)nn3)c3ccc(F)c(C)c3)CCS2(=O)=O)n1 [compound 28]	1 to 50
Cc1cc(C(F)(F)F)cc(N2[C@H](C(=O)N(CC#Cc3cnc(N4CCOCC4)cn3)c3ccc(F)c(C)c3)CCS2(=O)=O)n1 [compound 39]	1 to 50
C=CC(=O)Nc1cccnc1C#CCN(C(=O)[C@@H]1CCS(=O)(=O)N1c1cc(C(F)(F)F)cc(C)n1)c1ccc(F)c(C)c1 [compound 142, (S)-N-(3-(3-acrylamidopyridin-2-yl)prop-2-yn-1-yl)-N-(4-fluoro-3-methylphenyl)-2-(6-methyl-4-(trifluoromethyl)pyridin-2-yl)isothiazolidine-3-carboxamide 1,1-dioxide]	1 to 50
Cc1cc(C(F)(F)F)cc(N2[C@@H](C(=O)N(CC#Cc3cnc(N)cn3)c3ccc(F)c(C)c3F)CCS2(=O)=O)n1 [compound 31]	> 101
Cc1cc(C(F)(F)F)cc(N2[C@H](C(=O)N(CC#Cc3cnc(N4C[C@@H](C)O[C@@H](C)C4)cn3)c3ccc(F)c(C)c3)CCS2(=O)=O)n1 [compound 47]	1 to 50
Cc1cc(N(CC#Cc2cnc(N3CCOCC3)cn2)C(=O)[C@@H]2CCS(=O)(=O)N2c2cc(C(F)(F)F)cc(C(F)(F)F)n2)ccc1F [compound 125]	1 to 50

Structure (SMILES)	IC50 [nM]
Cc1cc(C(F)(F)F)cc(N2[C@H](C(=O)N(CC#Cc3cnc(N)cn3)c3ccc(F)c(C)c3)CCS2(=O)=O)n1 [compound 30]	1 to 50
Cc1cc(C(F)(F)F)cc(N2[C@H](C(=O)N(CC#Cc3ccc(C(N)=O)cc3)c3ccc(F)c(C)c3)CCS2(=O)=O)n1 [compound 105]	1 to 50
Cc1cc(C(F)(F)F)cc(N2[C@H](C(=O)N(CC#Cc3ccc(N)nn3)c3ccc(F)c(C)c3)CN(C(C)C)S2(=O)=O)n1 [compound 110]	1 to 50
Cc1cc(C(F)(F)F)cc(N2[C@H](C(=O)N(CC#Cc3cnc(N4CCOCC4)c(C(F)(F)F)n3)c3ccc(F)c(C)c3)CCS2(=O)=O)n1 [compound 46]	1 to 50
Cc1cc(C(F)(F)F)cc(N2[C@H](C(=O)N(CC#Cc3ccc(F)c(C(C)C)n3)c3ccc(F)c(C)c3)CCS2(=O)=O)n1 [compound 94]	51 to 100
Cc1ccc(F)c(N(CC#Cc2cnc(N)cn2)C(=O)[C@@H]2CCS(=O)(=O)N2c2cc(C(F)(F)F)cc(C)n2)c1 [compound 33]	1 to 50
Cc1cc(C(F)(F)F)cc(N2[C@H](C(=O)N(CC#Cc3cnc4c(c3)C(=O)N(C)C4=O)c3ccc(F)c(C)c3)CCS2(=O)=O)n1 [compound 100]	1 to 50
Cc1cc(C(F)(F)F)cc(N2[C@H](C(=O)N(CC#Cc3cncc(N4CCOCC4)n3)c3ccc(F)c(C)c3)CCS2(=O)=O)n1 [compound 42]	1 to 50
Cc1cc(C(F)(F)F)cc(N2[C@H](C(=O)N(CC#Cc3cnc(NC(N)=O)cn3)c3ccc(F)c(C)c3)CCS2(=O)=O)n1 [compound 35]	1 to 50
Cc1cc(C(F)(F)F)cc(N2[C@H](C(=O)N(CC#Cc3cnc(C(N)=O)c(F)c3)c3ccc(F)c(C)c3)CCS2(=O)=O)n1 [compound 96]	1 to 50
COc1ccc(C#CCN(C(=O)[C@@H]2CCS(=O)(=O)N2c2cc(C(F)(F)F)cc(C)n2)c2ccc(F)c(C)c2)nn1 [compound 27]	1 to 50
C=C(F)C(=O)Nc1cncc(C#CCN(C(=O)[C@@H]2CCS(=O)(=O)N2c2cc(C(F)(F)F)cc(C)n2)c2ccc(F)c(C)c2)c1 [compound 130]	1 to 50
Cc1cc(C(F)(F)F)cc(N2[C@H](C(=O)N(CC#Cc3cnc(C(=O)N4CCOCC4)cn3)c3ccc(F)c(C)c3)CCS2(=O)=O)n1 [compound 69]	1 to 50
C=CC(=O)Nc1cc(C#CCN(C(=O)[C@@H]2CCS(=O)(=O)N2c2cc(C(F)(F)F)cc(C)n2)c2ccc(F)c(C)c2)ccn1 [compound 139, (S)-N-(3-(2-acrylamidopyridin-4-yl)prop-2-yn-1-yl)-N-(4-fluoro-3-methylphenyl)-2-(6-methyl-4-(trifluoromethyl)pyridin-2-yl)isothiazolidine-3-carboxamide 1,1-dioxide]	1 to 50
Cc1cc(C(F)(F)F)cc(N2[C@H](C(=O)N(CC#Cc3cnc(C(N)=O)nn3)c3ccc(F)c(C)c3)CCS2(=O)=O)n1 [compound 123]	1 to 50
Cc1cc(C(F)(F)F)cc(N2[C@H](C(=O)N(CC#Cc3nc(C(N)=O)co3)c3ccc(F)c(C)c3)CCS2(=O)=O)n1 [compound 104]	1 to 50

— patent publication US20260297083A1, “SUBSTITUTED ACETYLENE COMPOUND DERIVATIVES AND THEIR PHARMACEUTICAL USE” (AVELOS THERAPEUTICS INC., priority 2023, published 2026)
